According to paper PMC4932537, “Search for Potent and Selective Aurora A Inhibitors Based on General Ser/Thr Kinase Pharmacophore Model” (Pharmaceuticals, 2016):
Where a name gives a salt, the structure may show the parent alone. Read-outs that look alike come from different tables or passages of the source. Each block holds one compound with its values, some of them ahead of it.

Tests used:
[1] = target: T1, Aurora A (Homo sapiens, UniProt O14965); assay: Aurora A kinase inhibition (biochemical assay)
T1 sequence (O14965 1-403): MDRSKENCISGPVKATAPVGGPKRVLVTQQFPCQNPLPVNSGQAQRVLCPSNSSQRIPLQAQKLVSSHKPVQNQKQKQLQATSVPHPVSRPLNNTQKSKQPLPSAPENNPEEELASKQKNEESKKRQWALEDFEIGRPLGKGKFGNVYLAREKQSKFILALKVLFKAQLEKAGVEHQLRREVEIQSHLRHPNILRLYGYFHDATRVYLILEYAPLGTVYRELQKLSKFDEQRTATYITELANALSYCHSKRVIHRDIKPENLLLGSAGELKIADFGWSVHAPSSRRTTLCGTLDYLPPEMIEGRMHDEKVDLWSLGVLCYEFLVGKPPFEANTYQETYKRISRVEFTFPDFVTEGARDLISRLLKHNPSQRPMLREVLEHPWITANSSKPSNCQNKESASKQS

[2] = target: Aurora B (Homo sapiens, UniProt Q96GD4); assay: Aurora B kinase inhibition; type: biochemical; settings: Table 1
[3] = target: T2, Haspin (Homo sapiens, UniProt Q8TF76); assay: Haspin kinase inhibition; type: biochemical; settings: Table 1
T2 sequence (Q8TF76 1-798): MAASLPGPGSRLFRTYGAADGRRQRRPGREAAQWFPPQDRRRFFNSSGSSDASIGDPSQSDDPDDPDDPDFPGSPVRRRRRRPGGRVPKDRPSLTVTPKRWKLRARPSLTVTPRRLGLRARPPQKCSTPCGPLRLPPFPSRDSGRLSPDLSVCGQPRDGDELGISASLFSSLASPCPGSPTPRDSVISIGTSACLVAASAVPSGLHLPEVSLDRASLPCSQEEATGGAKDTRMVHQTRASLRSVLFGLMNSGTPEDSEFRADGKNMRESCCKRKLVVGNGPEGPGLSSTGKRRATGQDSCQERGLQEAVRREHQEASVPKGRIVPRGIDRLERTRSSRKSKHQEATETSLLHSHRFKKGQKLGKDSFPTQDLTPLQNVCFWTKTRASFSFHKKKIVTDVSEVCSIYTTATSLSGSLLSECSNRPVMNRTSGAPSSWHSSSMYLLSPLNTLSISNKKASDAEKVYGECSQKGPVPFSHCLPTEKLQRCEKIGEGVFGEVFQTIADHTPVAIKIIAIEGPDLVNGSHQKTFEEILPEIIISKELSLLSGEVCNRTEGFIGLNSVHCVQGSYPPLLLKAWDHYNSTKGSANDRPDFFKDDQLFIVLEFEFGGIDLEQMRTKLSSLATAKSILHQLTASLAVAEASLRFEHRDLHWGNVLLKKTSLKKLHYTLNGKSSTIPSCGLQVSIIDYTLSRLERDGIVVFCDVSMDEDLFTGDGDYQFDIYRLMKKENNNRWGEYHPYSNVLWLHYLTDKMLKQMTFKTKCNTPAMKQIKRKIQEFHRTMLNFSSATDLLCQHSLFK
From the text: Table 1 Activity of compounds fitting to general pharmacophore model against selected Ser/Thr kinases. | column: Haspin, IC50, μM

[4] = system: HL-60 (acute promyelocytic leukemia); assay: MTT cytotoxicity, HL-60; type: cell-based; settings: Homo sapiens; HL-60, MTT, 72 h
From the text: (§1) All cells lines were purchased in ATCC (Manassas, VA, USA), except for human primary fibroblasts (HFB), which were a generous gift from Dashinimaev E.B. (Koltsov Institute of Developmental Biology). H1299 (lung adenocarcinoma), H23 (lung adenocarcinoma), Colo320 (colon carcinoma), RS4;11 (acute lymphoblastic leukemia), PC3 (prostate adenocarcinoma) and HL-60 (acute promyelocytic leukemia) were cultivated in RPMI-1640 medium, with addition of 10% fetal calf serum (HyClone, South Logan, Utah, USA) and 2 mM L-Glutamine at 37 °C, 5% CО2. MDA-MB-453 (mammary adenocarcinoma), A549 (lung adenocarcinoma), HCT-116 (colon carcinoma), A431 (epidermoid carcinoma), MDA-MB-231 (mammary adenocarcinoma), BxPC3 (pancreatic adenocarcinoma), MEF (mouse embryonic fibroblasts, SV-40 immortalized), MEF Bax^−/−/Bak^−/− knockout cells (mouse embryonic fibroblasts, SV-40 immortalized, resistant to apoptosis) were cultivated in DMEM medium, with addition of 10% fetal calf serum (HyClone) and 2 mM L-Glutamine at 37 °C, 5% CО2.
(§2) Cells were seeded in 96-well plates (Corning, NY, USA): 5000 cells per well for adhesive cultures and cells, 25,000 cells per well for suspension cultures. Analyzed substances were added in 0.1–50 μM concentration range, with 2 × dilutions, and incubated for 72 h at 37 °C, 5% CО2. After incubation 20 uL of 5 mg/mL of water solution of 3-(4,5-dimethylthiazol-2-yl)-2,5-diphenyltetrazolium bromide (MTT, PANEKO, Moscow, Russia) was added to the cells and they were incubated for additional 4 h. After the incubation the medium was aspirated, cells were dissolved in 100 uL of DMSO and the optical density was measured at 570 nm with a МultiscanFC plate reader (ThermoScientific, Cambridge, MA, USA). The percentage of surviving cells at each dose was calculated by dividing the optical density of treated cells by the optical density of untreated control (which was taken as 100%). The IC50s were calculated in GraphPad Prism 5.0.

[5] = system: H23 (lung adenocarcinoma); assay: MTT cytotoxicity, H23; type: cell-based; settings: 72 h
From the text: as §1, §2

[6] = system: H1299 (lung adenocarcinoma); assay: MTT cytotoxicity, H1299; type: cell-based; settings: Homo sapiens, NCI-H1299, 72 h
From the text: as §1, §2

[7] = system: PC3 (prostate adenocarcinoma); assay: MTT cytotoxicity, PC3; type: cell-based; settings: 72 h
From the text: as §1, §2

[8] = system: MDA-MB-453 (mammary adenocarcinoma); assay: MTT cytotoxicity, MDA-MB-453; type: cell-based; settings: Homo sapiens; MDA-MB-453, MTT, 72 h
From the text: as §1, §2

[9] = system: RS4;11 (acute lymphoblastic leukemia); assay: MTT cytotoxicity, RS4;11; type: cell-based; settings: Homo sapiens; RS4;11, MTT, 72 h
From the text: as §1, §2

[10] = system: A-549 (lung adenocarcinoma); assay: MTT cytotoxicity, A-549; type: cell-based; settings: Homo sapiens, A549; A-549, MTT, 72 h
From the text: as §1, §2

[11] = system: HCT-116 (colon carcinoma); assay: MTT cytotoxicity, HCT-116; type: cell-based; settings: Homo sapiens; HCT-116, MTT, 72 h
From the text: as §1, §2

[12] = MTT cytotoxicity, HFB; type: cell-based; settings: human, human primary fibroblasts (HFB)
From the text: as §1, §2

[13] = system: A431 (epidermoid carcinoma); assay: MTT cytotoxicity, A431; type: cell-based; settings: Homo sapiens, A-431, 72 h
From the text: as §1, §2

[14] = system: Colo-320 (colon carcinoma); assay: MTT cytotoxicity, Colo-320; type: cell-based; settings: Homo sapiens; Colo-320, MTT, 72 h
From the text: as §1, §2

[15] = system: MDA-MB231 (mammary adenocarcinoma); assay: MTT cytotoxicity, MDA-MB231; type: cell-based; settings: Homo sapiens, MDA-MB-231, 72 h
From the text: as §1, §2

[16] = system: BxPC3 (pancreatic adenocarcinoma); assay: MTT cytotoxicity, BxPC3; type: cell-based; settings: Homo sapiens, BXPC-3, 72 h
From the text: as §1, §2

[17] = MTT cytotoxicity, MEFs Dko; type: cell-based; settings: mouse, MEFs Dko (bax−/−bak−/−)
From the text: as §1, §2

[18] = MTT cytotoxicity, MEF WT; type: cell-based; settings: mouse
From the text: as §1, §2

[19] = Table 1, read-out: Aurora A, IC50
[20] = Table 2, Mean ± SEM, four repeats, read-out: Aurora A kinase inhibition IC50

Sequence of Aurora B (Q96GD4 whole entry): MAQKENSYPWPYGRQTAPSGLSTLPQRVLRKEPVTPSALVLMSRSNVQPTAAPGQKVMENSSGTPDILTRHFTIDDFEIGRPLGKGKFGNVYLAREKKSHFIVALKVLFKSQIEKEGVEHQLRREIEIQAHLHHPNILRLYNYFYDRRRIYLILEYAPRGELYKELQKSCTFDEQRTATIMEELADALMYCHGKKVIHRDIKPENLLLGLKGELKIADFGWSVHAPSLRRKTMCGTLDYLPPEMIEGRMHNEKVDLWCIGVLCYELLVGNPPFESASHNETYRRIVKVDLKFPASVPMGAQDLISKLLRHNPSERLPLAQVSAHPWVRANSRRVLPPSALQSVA

SMILES: CCCc1cnc(Nc2cccc(C3CCN(C(=O)C(C)(C)N)CC3)n2)s1 [Compound 1, 2-Amino-2-methyl-1-(4-(6-(5-propylthiazole-2-ylamino)pyridin-2-yl)piperidin-1-yl)propan-1-one hydrochloride]
IC50 [1, 19]: 2.06 ± 0.15 µM
IC50 [2]: 1.45 ± 0.17 µM
IC50 [3]: 1.49 ± 0.15 µM

SMILES: CCCc1cnc(Nc2cccc(C3CCN(C(=O)CN(C)C)CC3)n2)s1 [Compound 3, 2-(Dimethylamino)-1-(4-(6-(5-propylthiazol-2-ylamino)pyridin2-yl)piperidin-1-yl)ethanone]
IC50 [1, 19]: 1.95 ± 0.22 µM
IC50 [2]: 1.76 ± 0.16 µM
IC50 [3]: 7.06 ± 0.68 µM

SMILES: CCCc1cnc(Nc2cccc(C3CCN(C(=O)CN)CC3)n2)s1 [Compound 4, 2-Amino-1-(4-(6-(5-propylthiazol-2-ylamino)pyridin-2-yl)piperidin-1-yl)ethanone]
IC50 [1, 19]: 2.08 ± 0.25 µM
IC50 [2]: 1.72 ± 0.19 µM
IC50 [3]: 0.08 ± 0.008 µM

SMILES: CCCc1cnc(Nc2cccc(C3CCN(C(=O)CNC)CC3)n2)s1 [Compound 5, 2-(Methylamino)-1-(4-(6-(5-propylthiazol-2-ylamino)pyridin-2-yl)piperidin-1-yl)ethanone]
IC50 [1, 19]: 1.44 ± 0.13 µM
IC50 [2]: 0.91 ± 0.08 µM
IC50 [3]: 0.43 ± 0.034 µM

SMILES: CCCc1cnc(Nc2cccc(C3CCN(C(=O)[C@@H](C)N)CC3)n2)s1 [Compound 6, (R)-2-Amino-1-(4-(6-(5-propylthiazol-2-ylamino)-pyridin-2-yl)piperidin-1-yl)propan-1-one]
IC50 [1, 19]: 1.67 ± 0.17 µM
IC50 [2]: 1.75 ± 0.18 µM
IC50 [3]: 1.12 ± 0.11 µM

SMILES: CCCc1cnc(Nc2cc(C(C)C)nc(C3CCN(C(=O)C(C)(C)N)CC3)n2)s1 [Compound 7, 2-Amino-1-(4-(4-isopropyl-6-(5-propylthiazol-2-ylamino)pyrimidin-2-yl)piperidin-1-yl)-2-methylpropan-1-one]
IC50 [1, 19]: 2.79 ± 0.3 µM
IC50 [2]: 2.25 ± 0.23 µM
IC50 [3]: 3.67 ± 0.37 µM

SMILES: CCCc1cnc(Nc2cc(CC)nc(C3CCN(C(=O)C(C)(C)N)CC3)n2)s1 [Compound 8, 2-Amino-1-(4-(4-ethyl-6-(5-propylthiazol-2-ylamino)pyrimidin-2-yl)piperidin-1-yl)-2-methylpropan-1-one]
IC50 [1, 19]: 3.58 ± 0.43 µM
IC50 [2]: 2.05 ± 0.24 µM
IC50 [3]: 2.9 ± 0.43 µM

Further lines, with some results ahead:

IC50 [1, 19]: 3.17 ± 0.33 µM
IC50 [2]: 8.02 ± 0.8 µM
IC50 [3]: 0.27 ± 0.019 µM
SMILES: CC(C)(N)C(=O)N1CCC(c2cccc(Nc3ncc(-c4ccccc4)s3)n2)CC1 [Compound 9, 2-Amino-2-methyl-1-(4-(6-(5-phenylthiazol-2-ylamino)pyridine-2-yl)propan-1-one hydrochloride]

IC50 [1, 19]: 8.38 ± 0.84 µM
IC50 [2]: 0.84 ± 0.09 µM
IC50 [3]: 7.8 ± 0.81 µM
SMILES: O=C(C1CNCCO1)N1CCC(c2cccc(Nc3ncc(-c4ccccc4)s3)n2)CC1 (stereo not shown) [Compound 10, Morpholin-2-yl(4-(6-(5-phenylthiazol-2-ylamino)pyridin-2-yl)piperidin-1-yl)methanone]

IC50 [1, 20]: 0.012 ± 0.0011 µM
melting point: 211 to 213 °C
SMILES: Cc1cc(Nc2ncc(C)s2)nc(CC2CCN(C(=O)c3cccc(Cl)c3F)CC2)n1 [Compound 11, (3-Chloro-2-fluoro-phenyl)-{4-[4-methyl-6-(5-methyl-thiazol-2-ylamino)-pyrimidin-2-ylmethyl]-piperidin-1-yl}-methanone]
IC50 [4]: 5.4 ± 0.3 µM
IC50 [5]: 3.9 ± 0.15 µM
IC50 [6]: 1.7 ± 0.2 µM
IC50 [7]: 3.2 ± 0.2 µM
IC50 [8]: 10 ± 1.2 µM
IC50 [9]: 0.5 ± 0.04 µM
IC50 [10]: 5.6 ± 0.5 µM
IC50 [11]: 3 ± 0.4 µM
IC50 at 72 h [12]: 3.6 ± 0.4 µM
IC50 [13]: 4.6 ± 0.5 µM
IC50 [14]: 0.8 ± 0.09 µM
IC50 [15]: 7.3 ± 0.8 µM
IC50 [16]: 2 ± 0.021 µM
IC50 at 48 h [17]: 3.1 ± 0.32 µM
IC50 at 48 h [18]: 1 ± 0.2 µM

IC50 [1, 20]: 0.0351 ± 0.00036 µM
melting point: 207 to 209 °C
SMILES: Cc1cc(Nc2nccs2)nc(CC2CCN(C(=O)c3cccc(Cl)c3F)CC2)n1 [Compound 12, (3-Chloro-2-fluoro-phenyl)-{4-[4-methyl-6-(thiazol-2-ylamino)-pyrimidin-2-ylmethyl]-piperidin-1-yl}-methanone]
IC50 [4]: 39.8 ± 3.4 µM
IC50 [5]: 6.8 ± 0.5 µM
IC50 [6]: 5 ± 0.4 µM
IC50 [7]: 6 ± 0.7 µM
IC50 [8]: 16.3 ± 1.7 µM
IC50 [9]: 1.5 ± 0.2 µM
IC50 [10]: 10 ± 1.2 µM
IC50 [11]: 6.5 ± 0.7 µM
IC50 at 72 h [12]: 3.8 ± 0.4 µM
IC50 [13]: 10.2 ± 1.2 µM
IC50 [14]: 2 ± 0.15 µM
IC50 [15]: 28.2 ± 0.3 µM
IC50 [16]: 6 ± 0.59 µM
IC50 at 48 h [17]: 11.8 ± 1.2 µM
IC50 at 48 h [18]: 5.8 ± 0.5 µM
